Laboratory results taken from paper PMC1435945, “Prediction of indirect interactions in proteins” (BMC Bioinformatics, 2006).
Marks after values point to notes of the source that are not given here. Where a SMILES comes first, the peptide text is derived from it. [ ]: non-standard residue; d: D form. Tyr(3-I) = N[C@@H](Cc1ccc(O)c(I)c1)C(=O)O; Nle = CCCC[C@H](N)C(=O)O

How the values were obtained:
[1] = biological target: F451 multiple chimeric melanocortin receptor; experiment: Radioligand binding saturation, chimera F451; conditions: COS-1, F451, F-set, parts A/B/C MC4/MC5/MC1, pK ± SD
[2] = biological target: F413 multiple chimeric melanocortin receptor; experiment: Radioligand binding saturation, chimera F413; conditions: COS-1, F413, F-set, parts A/B/C MC4/MC1/MC3, pK ± SD
[3] = biological target: F354 multiple chimeric melanocortin receptor; experiment: Radioligand binding saturation, chimera F354; conditions: COS-1, F354, F-set, parts A/B/C MC3/MC5/MC4, pK ± SD
[4] = biological target: S531 multiple chimeric melanocortin receptor; experiment: Radioligand binding saturation, chimera S531; conditions: COS-1, S531, S-set, parts A/B/C MC5/MC3/MC1, pK ± SD
MC5 receptor = conditions: saturation; MC5 wt.; ref [31]; cited from earlier work
Description: (§1) Table 1 Affinities of multiple chimeric melanocortin receptors.

MC1 receptor = conditions: saturation; MC1 wt.; ref [31]; cited from earlier work
Description: as §1

MC3 receptor = conditions: saturation; MC3 wt.; ref [31]; cited from earlier work
Description: as §1

MC4 receptor = conditions: saturation; MC4 wt.; ref [31]; cited from earlier work
Description: as §1

[5] = biological target: S134 multiple chimeric melanocortin receptor; experiment: Radioligand binding saturation, chimera S134; conditions: COS-1, S134, S-set, parts A/B/C MC1/MC3/MC4, pK ± SD
[6] = biological target: F514 multiple chimeric melanocortin receptor; experiment: Radioligand binding saturation, chimera F514; conditions: COS-1, F514, F-set, parts A/B/C MC5/MC1/MC4, pK ± SD

pK (Kd) [1]: 9.06 ± 0.31
pK (Kd) [2]: 8.62 ± 0.16
pK (Kd) [3]: 8.80 ± 0.16
pK (Kd) [4]: 8.96 ± 0.35
pK (Kd) [5]: 9.30 ± 0.26
pK (Kd) [6]: 9.19 ± 0.21
SMILES: CCCC[C@H](NC(=O)[C@H](CO)NC(=O)[C@H](Cc1ccc(O)c(I)c1)NC(=O)[C@H](CO)NC(C)=O)C(=O)NCC(=O)N[C@@H](Cc1c[nH]cn1)C(=O)N[C@H](Cc1ccccc1)C(=O)N[C@@H](CCCNC(=N)N)C(=O)N[C@@H](Cc1c[nH]c2ccccc12)C(=O)NCC(=O)N[C@@H](CCCCN)C(=O)N1CCC[C@H]1C(=O)N[C@H](C(N)=O)C(C)C [^125I-NDP-MSH, [^125I-Tyr^2, Nle^4, D-Phe^7]-α-MSH] (Ac-S[Tyr(3-I)]S[Nle]GH[dF]RWGKPV-NH2)
pK (Kd) (MC5 receptor): 8.54^a
pK (Kd) (MC1 receptor): 9.96^a
pK (Kd) (MC3 receptor): 9.40^a
pK (Kd) (MC4 receptor): 8.64^a
